O=C(NC(=O)c1c(F)cccc1F)Nc1cc(Cl)c(F)c(Cl)c1F
solubility (mole fraction)
Details | 278.15 K | 283.15 K | 288.15 K | 293.15 K | 298.15 K | 303.15 K | 308.15 K | 313.15 K | 318.15 K | 323.15 K
in DMF | 0.174 | 0.186 | 0.2 | 0.213 | 0.228 | 0.243 | 0.26 | 0.275 | 0.292 | 0.308
in ethanol | 0.0485 | 0.0515 | 0.0549 | 0.0582 | 0.0614 | 0.0647 | 0.0676 | 0.0708 | 0.0744 | 0.0782
in methanol | 0.0672 | 0.0729 | 0.0792 | 0.0854 | 0.0925 | 0.1 | 0.108 | 0.116 | 0.124 | 0.133
in propylene glycol | 0.0199 | 0.0212 | 0.0227 | 0.0241 | 0.0255 | 0.0269 | 0.0282 | 0.0296 | 0.0311 | 0.0327
in water | 6.82e-06 | 7.49e-06 | 8.19e-06 | 8.88e-06 | 9.72e-06 | 1.07e-05 | 1.17e-05 | 1.26e-05 | 1.36e-05 | 1.47e-05
